Data from patent US5874412A, “Bis-anthracyclines with high activity against doxorubicin resistant tumors” (priority 1997, dated 1999).
Where “and” joins values, the source holds several entries; their conditions need not be identical. Equal values may be shown once. Entries after “also recorded” stand apart in the source; their conditions may differ. Where a name gives a salt, the structure may show the parent alone. Read-outs that look alike come from different tables or passages of the source.

Key:
[1] = system: KB-V-1 cells
[2] = system: KB-V-1 cells; assay: cells; conditions: Homo sapiens, KB-V1, read-out: ID50 KB-V-1
[3] = system: MCF-7/VP-16 cells; conditions: for RI (resistance index) MCF-7/VP16 / MCF-7: human, mcf-7/vp-16 / mcf-7 cells, 4320 min
[4] = system: KB-3-1 cells; assay: MTT cytotoxicity assay, sensitive KB-3-1 cells; conditions: Homo sapiens, KB 3-1, read-out: ID50 KB-3-1
[5] = Young et al., 1985; cited from earlier work
[6] = system: MCF-7/VP-16 cells; assay: cells; conditions: Homo sapiens, MCF7, 72 h, read-out: ID50 MCF-7/VP16
[7] = system: MCF-7 cells; assay: MTT cytotoxicity assay, sensitive MCF-7 cells; assay type: cell-based, human; conditions: for IC50: Homo sapiens, MCF7, MTT, 72 h, read-out: ID50 MCF-7
[8] = system: DNA; conditions: literature; cited from earlier work
[9] = system: herring sperm DNA; assay: UV melting studies of DNA with drug; binding constant from Tm shift; conditions: for Kd: BPE buffer
[10] = system: herring sperm DNA; assay type: binding
[11] = system: DNA; assay: Viscosity studies (binding mode, relative viscosity of DNA); conditions: for binding mode from viscosity: in words, slope compared with daunorubicin; for slope of cubed root of the relative viscosity vs bound drug per DNA base pair: linear least squares fits, FIG. 20
Text: FIG. 20. Viscosity studies of WP631-DNA interaction. The cubed root of the relative viscosity (.eta./.eta.0) is shown as a function of the ratio of bound drug per DNA base pair: solid circles, ethidium bromide; open diamonds, daunorubicin; solid diamonds, WP63 1.
The bisanthracyclines may be tested as effective intercalating agents using viscosity assays as described by Suh and Chaires (1995). Such assays are well known to those of skill in the art. In theory, for monointercalation,plots of the cubed root of the relative viscosity ((.eta./.eta.0)^1/3) versus the binding ratio (bound drug/DNA bp) ought to have a slope of 1.0. For bisintercalators, the slope is expected to be twice that observed for monointercalators, an expectation that has been verified for a variety of bisintercalating compounds (Wakelin, 1986). Thus in order to test the effectiveness of a candidate bisintercalator the viscosity of a DNA solution is measured according to assays well known to those of skill in the art (Suh and Chaires, 1995) and compared to the viscosity of a known intercalator such as daunorubicin. If the candidate substance is higher than that of the control monointercalator then the candidate substance is likely to be an effective bisintercalator.
Viscosity Studies. Relative viscosity studies were conducted exactly as described previously (Suh and Chaires, 1995). Data were cast into a plot of (.eta./.eta.0)^1/3 versus ratio of bound drug per DNA base pair, in accord with the theory of Cohen and Eisenberg (1969). Ethidium bromide and daunorubicin were run as controls for these experiments.
WP631 Bisintercalates into DNA. In the absence of high-resolution structural data, hydrodynamic studies, especially viscosity, provide the most reliable means of inferring the binding mode of agents that interact with DNA (Suh and Chaires, 1995). […] The theory of Cohen and Eisenberg (1969) predicts that, for monointercalation,plots of the cubed root of the relative viscosity ((.eta./.eta.0)^1/3) versus the binding ratio (bound drug/DNA bp) ought to have a slope of 1.0.
For bisintercalators, the slope is expected to be twice that observed for monointercalators, an expectation that has been verified for a variety of bisintercalating compounds (Wakelin, 1986). […] The model was constructed using Hyper-Chem software (v. 4.5, Hypercube, Inc.) by using the coordinates of the high-resolution structure reported by Wang et al. (1987) for a 2:1 daunorubicin-DNA complex. The sequence of the hexanucleotide in that study was d(G.CTAG.C)3, where the two equivalent intercalation sites are indicated.

[12] = system: topoisomerase II; conditions: Hsiang et al., 1989; cited from earlier work
[13] = target: herring sperm DNA; conditions: cited from earlier work

Structure (SMILES)	cytotoxicity in MDR KB-V1 cells, in words [1]	IC50 [2] [µM]	RI (resistance index) MCF-7/VP16 / MCF-7 [3]	IC50 [4] [µM]	IC50 [6] [µM]	IC50 [7] [µM]	preferred DNA binding sites [8]	slope of cubed root of the relative viscosity vs bound drug per DNA base pair [11]	potency in MCF-7 cells compared with DOX, in words [7]	binding mode from viscosity [11]	further results
COc1cccc2c1C(=O)c1c(O)c3c(c(O)c1C2=O)C[C@@](O)(C(=O)CO)C[C@@H]3O[C@H]1C[C@H](N)[C@H](O)[C@H](C)O1 [DOX, doxorubicin]	inactive	299	17	3.7 ± 1.3	14.9 ± 0.89	0.9 ± 0.47	binds preferentially to CGA or CGT	–	–	–	RI (resistance index) KB-V-1 / KB-3-1 ([1]; human, kb-v-1 / kb-3-1 cells): 80.8; DOX resistance index relative to that of WP631 [3]: 34 fold; adverse systemic effects [5]: acute myelosuppression, cumulative cardiotoxicity, and gastrointestinal toxicity
COc1cccc2c1C(=O)c1c(O)c3c(c(O)c1C2=O)C[C@@](O)(C(C)=O)C[C@@H]3O[C@H]1C[C@H](NCc2ccc(CN[C@H]3C[C@H](O[C@H]4C[C@](O)(C(C)=O)Cc5c(O)c6c(c(O)c54)C(=O)c4c(OC)cccc4C6=O)O[C@@H](C)[C@H]3O)cc2)[C@H](O)[C@H](C)O1 [WP631, α,α'-Bis-[3'-N-(daunorubicin)]-p-xylene hydrochloride]	–	–	0.5	–	2.5 ± 3.4	4.83 ± 2.5	–	1.58±0.08	less potent than DOX	–	Tm of herring sperm DNA in presence of drug ([9]; 10 μM WP631, BPE buffer (16 mM total Na+), DNA alone 67.2° C.): 93.5 °C; Kd ([9]; at 20° C., ΔHb assumed constant with temperature, read-out: binding constant at 20° C. (van't Hoff) (converted)): 0.0037 nM; Kd ([9]; at 93.5° C., assuming n=6 bp, read-out: binding constant K at Tm (converted)): 114 nM; expected binding constant (square of monomer constant) ([9]; expected for bisintercalator, not measured): 10^14 M^-1; DNA affinity compared with polyamides, in words ([9]; vs pyrrole-imidazole polyamides (Trauger, 1996)): surpasses that of the polyamides; binding entropy ΔS [10]: -51 cal mol^-1 K^-1; binding free energy ΔG^0 [10]: -15.3 kcal/mol; entropic contribution TΔS [10]: -14.9 kcal/mol; enthalpy of melting of DNA-WP631 complex ΔH2 ([10]; DSC, BPE buffer, saturating amounts of WP631): 11.4 ± 1.0 kcal/mol; binding enthalpy ΔHb ([10]; hydrochloride): -30.2 ± 2.6 kcal/mol and -30.2 kcal/mol; cytotoxicity in MCF-7/VP-16 cells compared with DOX, in words [3]: dramatic increase in cytotoxicity; binding mode from viscosity ([11]; hydrochloride): binds to DNA by bisintercalation; also recorded: nearly double that observed for daunorubicin
COc1cccc2c1C(=O)c1c(O)c3c(c(O)c1C2=O)C[C@@](O)(C(C)=O)C[C@@H]3O[C@H]1C[C@H](O)[C@H](NCc2ccc(CN[C@@H]3[C@H](C)O[C@@H](O[C@H]4C[C@](O)(C(C)=O)Cc5c(O)c6c(c(O)c54)C(=O)c4c(OC)cccc4C6=O)C[C@@H]3O)cc2)[C@H](C)O1 [WP652, α,α'-Bis-4'-N-(4'-amino-3'-deamino-4'-deoxy-3'-hydroxydaunorubicin)-p-xylene hydrochloride]	unusually active against the MDR cells	7.1 ± 1.2	–	4.8 ± 0.5	–	3.9 ± 3.3	–	–	less potent than DOX	–	–
CN(C)CCN1C(=O)c2cccc3cc(N)cc(c23)C1=O [amonafide]	–	–	–	–	–	–	–	–	–	–	inhibition of topoisomerase II [12]: inhibit topoisomerase II
COc1cccc2c1C(=O)c1c(O)c3c(c(O)c1C2=O)C[C@@](O)(C(C)=O)C[C@@H]3O[C@H]1C[C@H](N)[C@H](O)[C@H](C)O1 [daunorubicin]	–	–	–	–	–	–	triplet sequences 5'-A/TCG and 5'-A/TGC are preferred binding sites	0.89±0.04	–	viscosity changes in excellent agreement with the theory	Kd ([13]; BPE buffer, at 20° C., read-out: binding constant of daunorubicin (converted)): 0.1 µM and 0.0625 µM; binding enthalpy ΔH ([13]; comparable ionic conditions): -10.8 kcal/mol; binding entropy ΔS ([13]; comparable ionic conditions): -3 cal mol^-1 K^-1; binding free energy ΔG^0 ([13]; comparable ionic conditions): -9.9 kcal/mol
CC[n+]1c(-c2ccccc2)c2cc(N)ccc2c2ccc(N)cc21 [ethidium bromide, Ethidium bromide]	–	–	–	–	–	–	–	0.84±0.02	–	viscosity changes in excellent agreement with the theory	–
